Test results as given in PMC12344264, “Mechanistic, in-silico and in vitro studies with nitrofurans reveal potent leishmanicidal activity and inhibition of trypanothione reductase” (International Journal for Parasitology: Drugs and Drug …, 2025).
Read-outs that look alike come from different tables or passages of the source.

Assays:
[1] = system: L. donovani-iRFP axenic amastigotes; test: Antileishmanial effect on axenic amastigotes (iRFP fluorescence viability, 72 h); format: cell-based; conditions: Leishmania donovani
Description: (§1) For efficacy studies, L. donovani-iRFP, a genetically modified strain of L. donovani LV9 constitutively expressing the gene encoding the infrared fluorescent protein (iRFP) ([Melcón-Fernández et al., 2023]), was used. This strain was grown as promastigotes in Schneider's insect medium (Sigma-Aldrich, Merck, Darmstadt, Germany) supplemented with 20 % (v/v) foetal bovine serum (FBS) (Gibco, ThermoFisher Scientific, Waltham, MA, USA) and […] antibiotic cocktail (100 U/mL penicillin and 100 μg/mL streptomycin) (Hyclone, ThermoFisher Scientific, Waltham, MA, USA) at 26 °C until mice were infected ([Carballeira et al., 2016]). Axenic and intramacrophage amastigotes were isolated from six-to eight-week-old female Balb/c mice (see below) that had been infected intraperitoneally with 1.5 × 10^9 metacyclic L. donovani-iRFP promastigotes. To obtain axenic amastigotes, bone marrow was extracted from the femur and tibia of 8- to 10-week-old infected mice and passed through a 100 μm cell strainer. After centrifugation at 3500 rcf for 10 min at room temperature, cell suspensions were resuspended in medium containing 15 mM KCl; 136 mM KH2PO4; 10 mM K2HPO4.3H2O; 0.5 mM MgSO4.7H2O; 24 mM NaHCO3; 22 mM glucose; 1 mM glutamine, 1 × RPMI 1640 vitamin mix (Sigma-Aldrich, Merck, Darmstadt, Germany), 10 mM folic acid, 100 mM adenosine, 1 × RPMI amino acid mix (Sigma-Aldrich, Merck, Darmstadt, Germany), 5 mg/mL hemin, 25 mM 2-morpholinoethanesulfonic acid (MES) pH 5.6, supplemented with 10 % FBS (Gibco, ThermoFisher Scientific, Waltham, MA, USA) and antibiotic cocktail, and incubated at 37 °C and 5 % CO2. To obtain intramacrophage amastigotes, spleens from infected Balb/c mice were cut into pieces, ground with 2 mg/mL collagenase D (Merck, Darmstadt, Germany) and passed through a 100 μm cell strainer. The splenocyte-enriched cell suspension containing intramacrophage amastigotes was resuspended in RPMI medium (Gibco, Fisher Scientific International Inc., Pittsburgh, PA, USA) supplemented with 20 % FBS, 1 mM sodium pyruvate, 24 mM NaHCO3, 2 mM L-glutamine, 1 × RPMI vitamins, 25 mM HEPES pH 7.2 and antibiotic cocktail ([Ashok et al., 2016]).
(§2) The antileishmanial effect of the nitrofurans selected in this study was tested both in vitro on axenic L. donovani-iRFP amastigotes and ex vivo on intramacrophage amastigotes according to previously published methods ([Melcón-Fernández et al., 2023], [2024]; [Andrés-Rodríguez et al., 2024]). Assays were performed in a final volume of […] containing 20,000 axenic amastigotes or a number of L. donovani-iRFP-infected murine splenocytes representing 150,000 relative fluorescence units (RFU), in each well of a black 384-well microtiter plate with optical bottom. In addition, 40 μL of one-half serial dilutions of each compound in amastigotes culture medium (for axenic amastigotes) or in supplemented RPMI medium (for intramacrophage amastigotes) were added to each well. Positive (amphotericin B at a final concentration of 18 μM) and negative (0.1 % v/v DMSO) controls were included on each plate. The plates were incubated at 37 °C and 5 % CO2 for a maximum of 72 h. Fluorescence emitted by viable L. donovani-iRFP was measured on an Odyssey infrared imaging system (Li-Cor, NE, USA).
(§3) All experiments were carried out in triplicate and included at least three technical replicates. […] The SI was calculated from the CC50/EC50 ratio.

[2] = system: L. donovani-iRFP intramacrophage amastigotes; test: Ex vivo antileishmanial effect on intramacrophage amastigotes (infected murine splenocytes, iRFP fluorescence, 72 h); format: cell-based; conditions: Leishmania donovani, Splenocyte
Description: as §1, §2, §3

[3] = Cytotoxicity, alamarBlue, 72 h; format: cell-based; conditions: human
Description: (§4) For cytotoxicity tests, several mammalian cell lines were used. […] Primary cell cultures were also used to evaluate cytotoxicity. […] BMDM cells were differentiated for one week with 30 % […] from L929 cell line.
(§5) The in vitro cytotoxicity of the selected nitrofurans was evaluated in HepG2, RAW 264.7 cells, splenocytes and BMDM. In each well of a 96-well microtitre plate, 100 μL containing 10,000 HepG2 or RAW 264.7 cells were incubated for 24h at 37 °C and 5 % CO2 to allow the cells to settle. For primary cells, 100 μL containing 100,000 BMDM or 1,000,000 splenocytes were added to each well. Subsequently, […] of one-half serial dilutions of each compound diluted in DMEM (for HepG2 cells), RPMI medium (for RAW cells), splenocyte medium (for splenocytes) or BMDM medium supplemented with 10 % GM-CSF (for BMDM), were added to each well. The cytotoxic effect of the compounds was measured after 72 h of incubation at 37 °C and 5 % CO2. For this purpose, a 10 % (v/v) of the alamarBlue™ cell viability reagent (Invitrogen, Fisher Scientific International Inc., Pittsburgh, PA, USA) was added, and the reaction was incubated for 4 h at 37 °C and 5 % CO2. Fluorescence was measured using a Varioskan Lux spectrophotometer (ThermoFisher Scientific, Waltham, MA, USA). Positive controls consisting of 0.1 % (v/v) H2O2, and negative controls, consisting of 0.1 % (v/v) DMSO, were also included on each plate.
as §3

[4] = Cytotoxicity, alamarBlue, 72 h; format: cell-based, murine; conditions: mouse
Description: as §4, §5, §3

[5] = Cytotoxicity in primary splenocytes, alamarBlue, 72 h; format: cell-based; conditions: mouse
Description: as §4, §5, §3

[6] = Cytotoxicity in bone marrow-differentiated macrophages, alamarBlue, 72 h; format: cell-based; conditions: mouse
Description: as §4, §5, §3

[7] = system: L. donovani-iRFP axenic amastigotes; test: ROS production by axenic amastigotes (DCFH-DA, flow cytometry); format: cell-based, Leishmania donovani
Description: To assess ROS production in L. donovani-iRFP, axenic amastigotes were treated with nitrofurans at the concentration equivalent to their EC50 calculated in viability experiments. As positive control of oxidative stress induction, cultures were treated with 0.01 % H2O2 (v/v), whereas 0.03 % (v/v) DMSO was added as negative control. After an incubation period of 3 h at 37 °C, cells were harvested by centrifugation at 3500 rcf for 10 min, washed in phosphate-buffered saline (PBS), centrifuged again and resuspended in PBS. Cells were labeled with 5 μM 2′,7′-dichlorofluorescein diacetate (DCFH-DA, MedChemExpress) for 30 min at 37 °C. Then, cells were centrifuged at 3500 rcf for 5 min, washed, and resuspended in PBS. The cell suspension was stored at 4 °C until the analysis by flow cytometry, which was performed in a CytoFLEX SRT (Beckman Coulter). The experiment was carried out in triplicate and included three technical replicates.

L. donovani TryR = target: T1, L. donovani TryR (Leishmania donovani, UniProt P39050); test: biochemical; conditions: for Type of inhibition: Lineweaver-Burk double reciprocal plot, varying T[S]2
T1 construct: endogenous in cells; host or cells: L. donovani-iRFP (LV9) axenic amastigotes, crude cell extract
T1 sequence (P39050 whole entry): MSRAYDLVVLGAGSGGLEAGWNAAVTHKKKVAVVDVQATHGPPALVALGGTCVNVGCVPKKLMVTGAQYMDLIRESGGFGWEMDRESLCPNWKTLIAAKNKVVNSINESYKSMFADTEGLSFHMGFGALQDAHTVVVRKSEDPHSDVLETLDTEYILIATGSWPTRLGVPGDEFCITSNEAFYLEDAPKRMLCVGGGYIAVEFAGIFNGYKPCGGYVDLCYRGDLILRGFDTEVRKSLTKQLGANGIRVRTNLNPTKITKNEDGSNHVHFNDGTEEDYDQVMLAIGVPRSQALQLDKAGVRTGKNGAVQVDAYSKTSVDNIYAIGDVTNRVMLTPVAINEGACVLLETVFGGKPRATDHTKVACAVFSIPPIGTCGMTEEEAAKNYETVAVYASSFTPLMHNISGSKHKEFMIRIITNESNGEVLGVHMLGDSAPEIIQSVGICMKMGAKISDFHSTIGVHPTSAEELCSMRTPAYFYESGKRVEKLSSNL
Description: The activity of L. donovani TryR was measured in the presence of different concentrations of nitrofurans according to the protocol previously described ([Melcón-Fernández et al., 2023]). Briefly, 1 × 10^10 L. donovani-iRFP axenic amastigotes were washed twice in PBS and lysed with a solution containing 1 mM EDTA, 40 mM HEPES, 50 mM Tris HCl pH 7.5, 2 % (v/v) Triton X-100 and Pierce™ Protease Inhibitors Mini Tablets (ThermoFisher Scientific, Waltham, MA, USA). Cell extracts were prepared by mechanical disruption of the cells with 0.5 mm diameter glass beads (Merck, Darmstadt, Germany) and the supernatant obtained by centrifugation at 10,000 rcf for 5 min at 4 °C was used to measure TryR activity in 96-well plates. […] Cell extracts diluted in Tris HCl pH 7.5 (0.43 μg of total protein in 50 μL) were added to launch the reaction. The negative control consisted of 2.5 % DMSO, whereas the blank reaction included the TryR assay solution without T [S]2. […] To determine steady-state conditions, enzymatic activity was measured at 412 nm (ε = 14,150 M^−1 cm^−1) for a period of up to 120 min (with 5 min intervals) at 26 °C in a Varioskan Lux spectrophotometer (ThermoFisher Scientific, Waltham, MA, USA). The experiment was carried out in triplicate and included three technical replicates.

Leishmania = system: Leishmania; parameters: method as in Domínguez-Asenjo et al., 2021; conditions: oral administration, spleen and liver; ref Domínguez-Asenjo et al., 2021; cited from earlier work
L. major = system: L. major; parameters: method as in Domínguez-Asenjo et al., 2021; conditions: ref Domínguez-Asenjo et al., 2021; cited from earlier work
S. typhimurium TA100 = test: Ames mutagenicity test (Ames 384-ISO Well Test); conditions: for Mutagenic effect TA100-S9: with metabolic activation (S9 mix); for Mutagenic effect TA100: without S9 mix
[8] = compound at its axenic EC50, 3 h
[9] = HepG2 cells, 72 h, alamarBlue, read-out: HepG2 cells CC50
[10] = RAW 264.7 cells, 72 h, alamarBlue, read-out: RAW 264.7 cells CC50
[11] = primary splenocytes from healthy, non-infected mice, 72 h, alamarBlue, uninfected mice, read-out: Splenocytes CC50
[12] = bone marrow-differentiated macrophages (BMDM), 72 h, alamarBlue, uninfected mice, read-out: BMDM CC50
[13] = T[S]2 25-150 μM, inhibitor 6.25-100 μM, NADPH 0.20 mM, read-out: Ki
[14] = positive control 0.01 % (v/v), 3 h

SMILES | EC50 [1] [µM] | EC50 [2] [µM] | Negative ROS (unstressed population) [7, 8] [%] | Positive ROS (stressed population) [7, 8] [%] | Ki (L. donovani TryR) [µM] | Type of inhibition (L. donovani TryR) | CC50 at 72 h [3, 9] [µM] | CC50 at 72 h [4, 10] [µM] | CC50 at 72 h [5, 11] [µM] | CC50 at 72 h [6, 12] [µM] | Ki (L. donovani TryR; [13]) [µM] | further results
CC(=O)OC(OC(C)=O)c1ccc([N+](=O)[O-])o1 [5-nitro-2-furaldehide diacetate, 5-Nitro-2-furaldehyde diacetate] | 3.48 ± 0.09 | 4.6 ± 0.26 | 31.1 | 68.9 | 77.2 ± 21.9 | Uncompetitive | – | – | – | – | – | CC50 at 72 h [3]: 24.1 ± 0.59 µM; CC50 at 72 h [4]: 15.6 ± 1.27 µM; CC50 at 72 h [5]: 11 ± 0.28 µM; CC50 at 72 h [6]: 11.9 ± 0.46 µM
N#Cc1ccc([N+](=O)[O-])o1 [5-nitro-2-furonitrile, 5-Nitro-2-furonitrile] | 0.7 ± 0.05 | 1.45 ± 0.11 | 38.2 | 61.8 | – | Competitive | 21.7 ± 0.39 | 31.2 ± 5.04 | 8.49 ± 0.52 | 25.8 ± 0.6 | 24.8 ± 1.43 | –
O=C1OCCN1/N=C/c1ccc([N+](=O)[O-])o1 [Furazolidone] | 0.17 ± 0.01 | 0.09 ± 0.004 | 45.9 | 54.1 ± 5.8 | 13.7 ± 2.76 | Uncompetitive | – | – | – | – | – | Positive ROS (stressed population) ([7]; compound at its axenic EC50, 3 h, listed as FURAZOLIDONE): 54.1%
OO [H2O2] | – | – | – | – | – | – | – | – | – | – | – | Negative ROS (unstressed population) [7, 14]: 28.5%; Positive ROS (stressed population) [7, 14]: 71.5%
CSCC1CN(/N=C/c2ccc([N+](=O)[O-])o2)C(=O)O1 (stereo not drawn) [Nifuratel] | – | – | – | – | – | – | – | – | – | – | – | reduction of parasite load (Leishmania): > 70%; outcome in cutaneous leishmaniasis model (L. major): complete remission
CC1CS(=O)(=O)CCN1/N=C/c1ccc([N+](=O)[O-])o1 (stereo not drawn) [Nifurtimox] | 3.96 ± 0.37 | 1 ± 0.07 | 31.9 | 68.1 | 33.5 ± 6.93 | Uncompetitive | 84.9 ± 12.4 | 50.5 ± 2.25 | – | – | – | CC50 at 72 h ([5]; 72 h, alamarBlue, uninfected mice, read-out: Splenocytes CC50): 37.8 ± 6.12 µM; CC50 at 72 h ([6]; 72 h, alamarBlue, uninfected mice, read-out: BMDM CC50): 60.2 ± 4.79 µM
O=C1CN(/N=C/c2ccc([N+](=O)[O-])o2)C(=O)N1 [Nitrofurantoin] | 1.46 ± 0.08 | 2.1 ± 0.26 | 23.9 | 76.1 ± 11.6 | 31.2 ± 4.94 | Uncompetitive | 32 ± 4.58 | 37.2 ± 7.05 | 33.2 ± 3.5 | 56.3 ± 9.06 | – | Positive ROS (stressed population) ([7]; compound at its axenic EC50, 3 h, listed as NITROFURANTOIN): 76.1%
NC(=O)N/N=C/c1ccc([N+](=O)[O-])o1 [Nitrofurazone] | 0.49 ± 0.03 | 0.49 ± 0.11 | 44.1 | 55.9 | – | Uncompetitive | 65.5 ± 9.67 | 39.6 ± 7.91 | 38.9 ± 6.32 | 40.6 ± 1.97 | 25.8 ± 4.83 | Mutagenic effect TA100-S9 (S. typhimurium TA100; 0.5 μM): + (0.05); Mutagenic effect TA100 (S. typhimurium TA100; 0.5 μM): + (0.001); Mutagenic effect TA100-S9 (S. typhimurium TA100; 5.0 μM): + (0.001); Mutagenic effect TA100 (S. typhimurium TA100; 5.0 μM): + (0.05); Mutagenic effect TA100-S9 (S. typhimurium TA100; 50.0 μM): - ^b; Mutagenic effect TA100 (S. typhimurium TA100; 50.0 μM): - ^b
O=C1NN(c2ccc(F)c(Cl)c2)C(=O)C1=Cc1ccc([N+](=O)[O-])o1 [PYZD-4409, 1-(3-chloro-4-fluorophenyl)-4-[(5-nitro-2-furyl)methylene]-3,5-pyrazolidinedione] | 1.27 ± 0.04 | > 100 | 36.9 | 63.1 | – | Competitive | 16.3 ± 0.56 | 51.7 ± 8.03 | 11.7 ± 0.5 | 20.8 ± 6.4 | 7.63 ± 2.56 | –
